Source: PubChem BioAssay AID248 (DTP/NCI, 2004)
Several values for one entry are separate records, joined by “and”; a condition that tells them apart may be missing. Equal values may be shown once. Toxic doses and inconclusive results are not listed.

Test system: L1210 leukemia ip in BDF1 mice, survival T/C
Assay: NCI In Vivo Anticancer Drug Screen. Data for tumor model L1210 Leukemia (intraperitoneal) in B6D2F1 (BDF1) mice
Settings: endpoint: mean survival time, higher = longer survival
Procedure, shortened: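 Value reflects the ratio of survival in compound-treated mice to survival in vehicle-treated controls, with both groups carrying the same transplanted tumor.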

For `NC(=O)c1cn(C2OC(CO)C(O)C2O)c2ncnc(N)c12` (centres undefined), the T/C (dose: 0.1 mg/kg/injection, schedule: Q01DX Z (ip), vehicle: carboxymethylcellulose (CMC)) was 123 % of control, the T/C (dose: 0.12 mg/kg/injection, schedule: Q01DX009 (ip), vehicle: saline) was 118 % of control and the T/C (dose: 0.16 mg/kg/injection, schedule: Q01DX009 (ip), vehicle: saline) was 119 % of control. For the same molecule, the T/C (dose: 0.16 mg/kg/injection, schedule: Q#A X034 (ip), vehicle: carboxymethylcellulose (CMC)) was 116 % of control, the T/C (dose: 0.19 mg/kg/injection, schedule: Q01DX005 (ip), vehicle: saline) was 123 % of control and the T/C (dose: 0.19 mg/kg/injection, schedule: Q01DX009 (ip), vehicle: saline) was 121 % of control. The T/C (dose: 0.2 mg/kg/injection, schedule: Q01DX Z (ip), vehicle: carboxymethylcellulose (CMC)) was 121 % of control, the T/C (dose: 0.25 mg/kg/injection, schedule: Q01DX001 (sc), vehicle: saline) was 100 % of control and the T/C (dose: 0.32 mg/kg/injection, schedule: Q01DX017 (ip), vehicle: carboxymethylcellulose (CMC)) was 94 % of control. The T/C (dose: 0.32 mg/kg/injection, schedule: Q02DX009 (ip), vehicle: carboxymethylcellulose (CMC)) was 100 % of control, the T/C (dose: 0.32 mg/kg/injection, schedule: Q04DX005 (ip), vehicle: carboxymethylcellulose (CMC)) was 104 % of control and the T/C (dose: 0.32 mg/kg/injection, schedule: Q#A X034 (ip), vehicle: carboxymethylcellulose (CMC)) was 104 % of control. For the same molecule, the T/C (dose: 0.37 mg/kg/injection, schedule: Q01DX009 (ip), vehicle: Klucel (hydroxypropylcellulose) (HPC)) was 107 % of control, the T/C (dose: 0.39 mg/kg/injection, schedule: Q01DX009 (ip), vehicle: saline) was 108 % of control and the T/C (dose: 0.5 mg/kg/injection, schedule: Q01DX001 (sc), vehicle: saline) was 98 % of control. The T/C (dose: 0.5 mg/kg/injection, schedule: Q01DX005 (ip), vehicle: saline) was 157 % of control, the T/C (dose: 0.5 mg/kg/injection, schedule: Q01DX010 (oral), vehicle: saline) was 97 % of control and the T/C (dose: 0.5 mg/kg/injection, schedule: Q## X003 (ip), vehicle: saline) was 114 % of control. For the same molecule, the T/C (dose: 0.62 mg/kg/injection, schedule: Q01DX001 (ip), vehicle: carboxymethylcellulose (CMC)) was 94 % of control, the T/C (dose: 0.62 mg/kg/injection, schedule: Q01DX017 (ip), vehicle: carboxymethylcellulose (CMC)) was 105 % of control and the T/C (dose: 0.62 mg/kg/injection, schedule: Q02DX009 (ip), vehicle: carboxymethylcellulose (CMC)) was 101 % of control. The T/C (dose: 0.62 mg/kg/injection, schedule: Q04DX005 (ip), vehicle: carboxymethylcellulose (CMC)) was 113 % of control, the T/C (dose: 0.62 mg/kg/injection, schedule: Q08DX003 (ip), vehicle: carboxymethylcellulose (CMC)) was 105 % of control and the T/C (dose: 0.62 mg/kg/injection, schedule: Q#A X034 (ip), vehicle: carboxymethylcellulose (CMC)) was 101 % of control. For the same molecule, the T/C (dose: 0.65 mg/kg/injection, schedule: Q01DX001 (ip), vehicle: water) was 122 % of control, the T/C (dose: 0.75 mg/kg/injection, schedule: Q01DX009 (ip), vehicle: saline) was 112 % of control and 117 % of control and the T/C (dose: 0.78 mg/kg/injection, schedule: Q01DX009 (ip), vehicle: saline) was 108 % of control and 123 % of control. For the same molecule, the T/C (dose: 0.8 mg/kg/injection, schedule: Q01DX Z (ip), vehicle: water) was 123 % of control, the T/C (dose: 1.0 mg/kg/injection, schedule: Q01DX001 (sc), vehicle: saline) was 102 % of control and 104 % of control and the T/C (dose: 1.0 mg/kg/injection, schedule: Q01DX005 (ip), vehicle: saline) was 165 % of control. The T/C (dose: 1.0 mg/kg/injection, schedule: Q01DX006 (iv), vehicle: saline) was 111 % of control, the T/C (dose: 1.0 mg/kg/injection, schedule: Q01DX010 (oral), vehicle: saline) was 103 % of control and the T/C (dose: 1.0 mg/kg/injection, schedule: Q01DX Z (im), vehicle: saline) was 109 % of control. The T/C (dose: 1.0 mg/kg/injection, schedule: Q01DX Z (ip), vehicle: carboxymethylcellulose (CMC)) was 120 % of control, the T/C (dose: 1.0 mg/kg/injection, schedule: Q03DX005 (ip), vehicle: other) was 162 % of control and the T/C (dose: 1.0 mg/kg/injection, schedule: Q## X008 (ip), vehicle: saline) was 150 % of control. The T/C (dose: 1.25 mg/kg/injection, schedule: Q01DX001 (ip), vehicle: carboxymethylcellulose (CMC)) was 119 % of control, the T/C (dose: 1.25 mg/kg/injection, schedule: Q01DX017 (ip), vehicle: carboxymethylcellulose (CMC)) was 89 % of control and the T/C (dose: 1.25 mg/kg/injection, schedule: Q02DX009 (ip), vehicle: carboxymethylcellulose (CMC)) was 103 % of control. For the same molecule, the T/C (dose: 1.25 mg/kg/injection, schedule: Q04DX005 (ip), vehicle: carboxymethylcellulose (CMC)) was 110 % of control, the T/C (dose: 1.25 mg/kg/injection, schedule: Q08DX003 (ip), vehicle: carboxymethylcellulose (CMC)) was 106 % of control and the T/C (dose: 1.5 mg/kg/injection, schedule: Q01DX009 (ip), vehicle: Klucel (hydroxypropylcellulose) (HPC)) was 98 % of control. For the same molecule, the T/C (dose: 1.5 mg/kg/injection, schedule: Q01DX009 (ip), vehicle: saline with Tween-80) was 114 % of control and 118 % of control, the T/C (dose: 1.5 mg/kg/injection, schedule: Q01DX009 (ip), vehicle: saline) was 112 % of control and the T/C (dose: 1.5 mg/kg/injection, schedule: Q01DX Z (ip), vehicle: carboxymethylcellulose (CMC)) was 108 % of control. The T/C (dose: 1.5 mg/kg/injection, schedule: Q01DX Z (ip), vehicle: water) was 101 % of control, the T/C (dose: 1.56 mg/kg/injection, schedule: Q01DX005 (ip), vehicle: saline) was 90 % of control and the T/C (dose: 1.6 mg/kg/injection, schedule: Q01DX009 (ip), vehicle: saline) was 108 % of control. The T/C (dose: 1.8 mg/kg/injection, schedule: Q01DX Z (ip), vehicle: water) was 152 % of control, the T/C (dose: 2.0 mg/kg/injection, schedule: Q01DX001 (sc), vehicle: saline) was 103 % of control and 108 % of control and the T/C (dose: 2.0 mg/kg/injection, schedule: Q01DX006 (iv), vehicle: saline) was 115 % of control. The T/C (dose: 2.0 mg/kg/injection, schedule: Q01DX009 (ip), vehicle: saline) was 96 % of control and 100 % of control, the T/C (dose: 2.0 mg/kg/injection, schedule: Q01DX010 (oral), vehicle: saline) was 104 % of control and the T/C (dose: 2.0 mg/kg/injection, schedule: Q01DX Z (im), vehicle: saline) was 117 % of control. The T/C (dose: 2.0 mg/kg/injection, schedule: Q01DX Z (ip), vehicle: carboxymethylcellulose (CMC)) was 105 % of control, the T/C (dose: 2.0 mg/kg/injection, schedule: Q03DX005 (ip), vehicle: other) was 155 % of control and the T/C (dose: 2.0 mg/kg/injection, schedule: Q## X003 (ip), vehicle: saline) was 220 % of control. For the same molecule, the T/C (dose: 2.0 mg/kg/injection, schedule: Q## X008 (ip), vehicle: saline) was 157 % of control, the T/C (dose: 2.0 mg/kg/injection, schedule: Q## X024 (ip), vehicle: saline) was 155 % of control and the T/C (dose: 2.4 mg/kg/injection, schedule: Q01DX009 (ip), vehicle: saline) was 96 % of control. The T/C (dose: 2.5 mg/kg/injection, schedule: Q01DX001 (ip), vehicle: carboxymethylcellulose (CMC)) was 165 % of control, the T/C (dose: 2.5 mg/kg/injection, schedule: Q02DX009 (ip), vehicle: carboxymethylcellulose (CMC)) was 90 % of control and the T/C (dose: 2.5 mg/kg/injection, schedule: Q04DX005 (ip), vehicle: carboxymethylcellulose (CMC)) was 118 % of control. For the same molecule, the T/C (dose: 2.7 mg/kg/injection, schedule: Q01DX Z (ip), vehicle: water) was 161 % of control, the T/C (dose: 3.0 mg/kg/injection, schedule: Q01DX001 (ip), vehicle: water) was 157 % of control and the T/C (dose: 3.0 mg/kg/injection, schedule: Q01DX009 (ip), vehicle: saline with Tween-80) was 110 % of control. For the same molecule, the T/C (dose: 3.0 mg/kg/injection, schedule: Q01DX Z (ip), vehicle: water) was 104 % of control, the T/C (dose: 3.0 mg/kg/injection, schedule: Q03DX005 (ip), vehicle: other) was 157 % of control and 170 % of control and the T/C (dose: 4.0 mg/kg/injection, schedule: Q01DX001 (ip), vehicle: clinical formulation) was 159 % of control. For the same molecule, the T/C (dose: 4.0 mg/kg/injection, schedule: Q01DX001 (sc), vehicle: saline) was 102 % of control and 107 % of control, the T/C (dose: 4.0 mg/kg/injection, schedule: Q01DX006 (iv), vehicle: saline) was 91 % of control and the T/C (dose: 4.0 mg/kg/injection, schedule: Q01DX010 (oral), vehicle: saline) was 101 % of control. For the same molecule, the T/C (dose: 4.0 mg/kg/injection, schedule: Q01DX Z (im), vehicle: saline) was 108 % of control, the T/C (dose: 4.0 mg/kg/injection, schedule: Q## X008 (ip), vehicle: saline) was 170 % of control and the T/C (dose: 4.0 mg/kg/injection, schedule: Q## X024 (ip), vehicle: saline) was 97 % of control. The T/C (dose: 5.0 mg/kg/injection, schedule: Q01DX001 (ip), vehicle: water) was 185 % of control, the T/C (dose: 5.0 mg/kg/injection, schedule: Q01DX001 (oral), vehicle: saline) was 102 % of control and 103 % of control and the T/C (dose: 5.0 mg/kg/injection, schedule: Q03DX005 (ip), vehicle: other) was 162 % of control. The T/C (dose: 5.0 mg/kg/injection, schedule: Q08DX003 (ip), vehicle: carboxymethylcellulose (CMC)) was 121 % of control, the T/C (dose: 8.0 mg/kg/injection, schedule: Q## X003 (ip), vehicle: saline) was 109 % of control and the T/C (dose: 8.0 mg/kg/injection, schedule: Q## X008 (ip), vehicle: saline) was 195 % of control. The T/C (dose: 10.0 mg/kg/injection, schedule: Q01DX001 (oral), vehicle: saline) was 105 % of control, the T/C (dose: 16.0 mg/kg/injection, schedule: Q01DX001 (ip), vehicle: saline) was 102 % of control and the T/C (dose: 20.0 mg/kg/injection, schedule: Q01DX001 (oral), vehicle: saline) was 112 % of control.
